Measurements taken from publication PMC12655172, “Borylated 5-Membered Ring Iminosugars: Synthesis and Biological Evaluation for Glycosidase Inhibition and Anticancer Properties for Application in Boron Neutron Capture Therapy (BNCT)—Part 2” (Pharmaceuticals, 2025).

Legend:
β-D-glucosidase (almond) = assay: Glycosidase inhibition (Table 3 panel); format: biochemical; details: 1 mg/mL aqueous solution; run in water
Method: (§1) All enzymes and para-nitrophenyl substrates were purchased from Sigma. Enzymes were assayed at 27 °C in citric acid (0.1 M)/disodium hydrogen phosphate (0.2 M) buffers at the optimum pH for the enzyme. The incubation mixture consisted of […] of 1 mg/mL aqueous solution of extract and […] of the appropriate […] para-nitrophenyl substrate made up in buffer at the optimum pH for the enzyme. The reactions were stopped by addition of […] 0.4 M glycine (pH 10.4) during the exponential phase of the reaction, which had been determined at the beginning using uninhibited assays in which water replaced the inhibitor. Final absorbances were read at 405 nm using a Versamax microplate reader (Molecular Devices, Wokingham, UK). Assays were carried out in triplicate, and the values given are means of the three replicates per assay. All reactions were run in water.

[1] = tested on: β-D-glucuronidase (bovine liver); assay: Glycosidase inhibition (Table 3 panel); format: biochemical; details: 1 mg/mL aqueous solution; run in water
Method: as §1

[2] = tested on: MIA-Pa-Ca2 (pancreatic carcinoma); assay: Cancer screening, MTT growth inhibition; format: cell-based; details: for inhibition at 25 µM / GI50: Homo sapiens; for inhibition at 25 µM: MIA PaCa-2, 25 µM of drug, read-out: DOSE SCREEN percentage (%) cell growth inhibition MIA-Pa-Ca2 Pancreatic; for inhibition at 25 µM / DOSE SCREEN percentage (%) cell growth inhibition MIA-Pa-Ca2 Pancreatic: 72 h; for GI50: MIA PaCa-2, 72 h, read-out: DOSE RESPONSE GI50 MIA-Pa-Ca2 Pancreatic; for DOSE SCREEN percentage (%) cell growth inhibition MIA-Pa-Ca2 Pancreatic: 25 µM of drug
Method in brief: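 Cells seeded at 2500–4000/well in duplicate and grown 24 h into log phase, then medium with or without test agent added. Cultured in supplemented DMEM at 37 °C, 5% CO2; values are mean ± SEM of three independent experiments on separate passages.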

[3] = tested on: T1, amyloglucosidase (A. niger); assay: Glycosidase inhibition (Table 2 panel); format: biochemical
T1 construct: purchased Sigma-Aldrich
Description: (§2) The enzymes α-D-glucosidase (yeast), β-D-glucosidases (almond, bovine liver), α-D-galactosidase (coffee beans), β-D-galactosidase (bovine liver), α-D-mannosidase (Jack bean), β-D-mannosidase (snail), α-L-rhamnosidase (P. decumbens), α-L-fucosidase (bovine kidney), trehalase (porcine kidney), β-D-glucuronidases (E. coli, bovine liver), amyloglucosidase (A. niger), para-nitrophenyl glycosides, and various disaccharides were purchased from Sigma-Aldrich Co (St. Louis, MO, USA).
(§3) Brush border membranes were prepared from the rat small intestine according to the method of Kessler et al., and were assayed at pH 6.8 for rat intestinal maltase using maltose. […] The reaction was stopped by heating at 100 °C for 3 min. After centrifugation (600 g; 10 min), the resulting reaction mixture was added to the Glucose CII-test Wako (Wako Pure Chemical Ind., Osaka, Japan). […] Other glycosidase activities were determined using an appropriate para-nitrophenyl glycoside as substrate at the optimum pH of each enzyme. The reaction mixture contained the substrate ([…]) and the appropriate amount of enzyme. The reaction was stopped by the addition of Na2CO3 (400 μM). The released para-nitrophenol was measured spectrometrically at 400 nm. All reactions were run in methanol.

[4] = tested on: T2, β-D-glucuronidase (E. coli); assay: Glycosidase inhibition (Table 2 panel); format: biochemical
T2 construct: purchased Sigma-Aldrich
Description: as §2, §3

α-D-glucosidase (yeast) [5] = biological target: T3, α-D-glucosidase (yeast) (Saccharomyces cerevisiae, UniProt P53341); assay: Glycosidase inhibition (Table 2 panel); format: biochemical
T3 construct: purchased Sigma-Aldrich
Description: as §2, §3

α-D-glucosidase (yeast) [6] = biological target: T3, α-D-glucosidase (yeast); assay: Glycosidase inhibition (Table 3 panel); format: biochemical; details: 1 mg/mL aqueous solution, run in water; for inhibition at 1000 µg/mL (stock): read-out: Percentage inhibition α-D-Glucosidase Yeast
Method: All enzymes and para-nitrophenyl substrates were purchased from Sigma. Enzymes were assayed at 27 °C in citric acid (0.1 M)/disodium hydrogen phosphate (0.2 M) buffers at the optimum pH for the enzyme. The incubation mixture consisted of […] of 1 mg/mL aqueous solution of extract and […] of the appropriate 5 μM para-nitrophenyl substrate made up in buffer at the optimum pH for the enzyme. […] Assays were carried out in triplicate, and the values given are means of the three replicates per assay. All reactions were run in water.

[7] = tested on: MCF10A (non-tumour derived normal breast cell line); assay: Cancer screening, MTT growth inhibition; format: cell-based; details: 72 h; for inhibition at 25 µM / GI50: Homo sapiens, MCF-10A; for inhibition at 25 µM / DOSE SCREEN percentage (%) cell growth inhibition MCF10A Breast (normal): 25 µM of drug; for inhibition at 25 µM: read-out: DOSE SCREEN percentage (%) cell growth inhibition MCF10A Breast (normal); for GI50: read-out: DOSE RESPONSE GI50 MCF10A Breast (normal)
[8] = tested on: T4, α-L-fucosidase (bovine kidney); assay: Glycosidase inhibition (Table 2 panel); format: biochemical
T4 construct: purchased Sigma-Aldrich; host or cells: bovine kidney
Method in brief: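 Read-out was absorbance at 400 nm of para-nitrophenol freed from a […] para-nitrophenyl glycoside substrate, after the reaction was stopped with […]. Each enzyme was run at its optimum pH […].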

[9] = tested on: β-D-galactosidase (E. coli); assay: Glycosidase inhibition (Table 2 panel); format: biochemical; details: at 100 μM
[10] = read-out: inhibition % α-D-Glucosidase Yeast

T3 sequence (P53341 whole entry): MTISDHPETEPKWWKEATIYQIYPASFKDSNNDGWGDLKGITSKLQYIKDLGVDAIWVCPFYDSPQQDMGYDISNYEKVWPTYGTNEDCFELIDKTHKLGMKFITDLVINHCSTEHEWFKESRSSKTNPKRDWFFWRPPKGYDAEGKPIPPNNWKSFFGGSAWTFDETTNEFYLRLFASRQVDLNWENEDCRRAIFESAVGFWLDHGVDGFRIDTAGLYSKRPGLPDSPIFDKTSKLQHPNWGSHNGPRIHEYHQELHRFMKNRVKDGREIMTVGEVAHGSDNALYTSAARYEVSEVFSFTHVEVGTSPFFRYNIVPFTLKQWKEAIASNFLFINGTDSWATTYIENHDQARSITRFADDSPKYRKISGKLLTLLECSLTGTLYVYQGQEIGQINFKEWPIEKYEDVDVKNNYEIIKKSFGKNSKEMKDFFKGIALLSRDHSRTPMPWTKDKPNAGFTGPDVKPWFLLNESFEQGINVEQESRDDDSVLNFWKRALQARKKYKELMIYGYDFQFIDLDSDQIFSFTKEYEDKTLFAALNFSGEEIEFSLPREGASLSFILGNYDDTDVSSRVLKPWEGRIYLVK

Compound: OC[C@H](O)[C@@H]1[C@H](O)[C@H](O)CN1Cc1ccccc1B(O)O [ortho 4, N-(2-Methylphenylboronic acid)-1,4-dideoxy-1,4-imino-L-gulitol]
- Percentage inhibition β-D-Glucosidase Almond (β-D-glucosidase (almond)): 49.8%
- Percentage inhibition β-D-Glucuronidase Bovine Liver [1]: 2.2%
- inhibition at 25 µM [2]: 7 ± 2%
- GI50 [2]: > 50 µM
- inhibition % Amyloglucosidase A. niger ([3]; at 100 μM): ^cNI ^d(0%)
- inhibition % Amyloglucosidase A. niger ([3]; at 1000 μM): ^aNI ^b(0%)
- inhibition % β-D-Glucuronidase E. coli ([4]; at 100 μM): ^cNI ^d(0%)
- inhibition % β-D-Glucuronidase E. coli ([4]; at 1000 μM): ^aNI ^b(31.8%)
- IC50 (α-D-glucosidase (yeast) [5]; listed as of the 1000 μM series): 784 µM
- inhibition at 100 µM (α-D-glucosidase (yeast) [5]; [10]): 0%
- inhibition at 1000 µg/mL (stock) (α-D-glucosidase (yeast) [6]): -6.7%
- inhibition at 25 µM [7]: 8 ± 4%
- GI50 [7]: > 50 µM
- inhibition % α-L-Fucosidase Bovine Kidney ([8]; at 1000 μM): ^aNI ^b(1.3%)
- inhibition % β-D-Galactosidase E. coli [9]: ^cNI ^d(14%)

Compound: CC1(C)O[C@H]2O[C@H]3[C@@H]([C@H]2O1)N(Cc1cccc(O)c1)C[C@H]3O [meta 6]
- Percentage inhibition β-D-Glucosidase Almond (β-D-glucosidase (almond)): 0.7%
- Percentage inhibition β-D-Glucuronidase Bovine Liver [1]: 3.6%
- inhibition at 25 µM [2]: 12 ± 4%
- GI50 [2]: > 50 µM
- inhibition % Amyloglucosidase A. niger ([3]; at 100 μM): ^cNI ^d(4.8%)
- inhibition % β-D-Glucuronidase E. coli ([4]; at 100 μM): ^cNI ^d(0%)
- inhibition at 100 µM (α-D-glucosidase (yeast) [5]; [10]): 0%
- inhibition at 1000 µg/mL (stock) (α-D-glucosidase (yeast) [6]): 6.6%
- inhibition at 25 µM [7]: 4 ± 2%
- GI50 [7]: > 50 µM
- inhibition % β-D-Galactosidase E. coli [9]: ^cNI ^d(0.8%)

Compound: OB(O)c1cccc(CN2C[C@@H](O)[C@H]3OC(O)[C@H](O)[C@H]32)c1 (stereo partly drawn) [meta 3, N-(3-Methylphenylboronic acid)-3,6-dideoxy-3,6-imino-D-gulofuranose]
- Percentage inhibition β-D-Glucosidase Almond (β-D-glucosidase (almond)): 61.7%
- Percentage inhibition β-D-Glucuronidase Bovine Liver [1]: 13.3%
- inhibition at 25 µM [2]: 17 ± 4%
- GI50 [2]: > 50 µM
- inhibition % Amyloglucosidase A. niger ([3]; at 100 μM): ^cNI ^d(24.6%)
- inhibition % Amyloglucosidase A. niger ([3]; at 1000 μM): ^aNI ^b(1.5%)
- inhibition % β-D-Glucuronidase E. coli ([4]; at 100 μM): ^cNI ^d(16.2%)
- inhibition % β-D-Glucuronidase E. coli ([4]; at 1000 μM): ^aNI ^b(36.9%)
- inhibition at 100 µM (α-D-glucosidase (yeast) [5]; [10]): 1.4%
- inhibition at 1000 µM (α-D-glucosidase (yeast) [5]; [10]): 37%
- inhibition at 1000 µg/mL (stock) (α-D-glucosidase (yeast) [6]): -16.7%
- inhibition at 25 µM [7]: 6 ± 4%
- GI50 [7]: > 50 µM
- inhibition % α-L-Fucosidase Bovine Kidney ([8]; at 1000 μM): ^aNI ^b(3.8%)
- inhibition % β-D-Galactosidase E. coli [9]: ^cNI ^d(0.2%)

Compound: CC1(C)O[C@H]2O[C@H]3[C@@H]([C@H]2O1)N(Cc1cccc(B(O)O)c1)C[C@H]3O [meta 5, N-(3-Methylphenylboronic acid)-3,6-dideoxy-3,6-imino-1,2-O-isopropylidene-α-D-glucofuranose]
- Percentage inhibition β-D-Glucosidase Almond (β-D-glucosidase (almond)): 7.7%
- Percentage inhibition β-D-Glucuronidase Bovine Liver [1]: −0.9%
- inhibition at 25 µM [2]: 16 ± 1%
- GI50 [2]: > 50 µM
- inhibition % Amyloglucosidase A. niger ([3]; at 100 μM): ^cNI ^d(0%)
- inhibition % β-D-Glucuronidase E. coli ([4]; at 100 μM): ^cNI ^d(4.1%)
- inhibition at 100 µM (α-D-glucosidase (yeast) [5]; [10]): 7.8%
- Percentage inhibition α-D-Glucosidase Yeast (α-D-glucosidase (yeast) [6]): 13.7%
- inhibition at 1000 µg/mL (stock) (α-D-glucosidase (yeast) [6]): 14.8%
- inhibition at 25 µM [7]: 7 ± 4%
- GI50 [7]: > 50 µM
- inhibition % β-D-Galactosidase E. coli [9]: ^cNI ^d(0%)

Compound: Borocaptate sodium [BSH, reference compound]
- Percentage inhibition β-D-Glucosidase Almond (β-D-glucosidase (almond)): 47.3%
- Percentage inhibition β-D-Glucuronidase Bovine Liver [1]: 31.6%
- DOSE SCREEN percentage (%) cell growth inhibition MIA-Pa-Ca2 Pancreatic [2]: * 2 ± 6%
- inhibition % Amyloglucosidase A. niger ([3]; at 1000 μM): ^aNI ^b(0%)
- inhibition % β-D-Glucuronidase E. coli ([4]; at 1000 μM): ^aNI ^b(6%)
- inhibition % α-D-Glucosidase Yeast (α-D-glucosidase (yeast) [5]; at 1000 μM): ^aNI ^b(6.9%)
- Percentage inhibition α-D-Glucosidase Yeast (α-D-glucosidase (yeast) [6]): 59%
- DOSE SCREEN percentage (%) cell growth inhibition MCF10A Breast (normal) [7]: * 8 ± 3%
- inhibition % α-L-Fucosidase Bovine Kidney ([8]; at 1000 μM): ^aNI ^b(0%)

Compound: N[C@@H](Cc1ccc(B(O)O)cc1)C(=O)O [BPA, 4-borono-L-phenylalanine, reference compound]
- Percentage inhibition β-D-Glucosidase Almond (β-D-glucosidase (almond)): 3.9%
- Percentage inhibition β-D-Glucuronidase Bovine Liver [1]: −0.7%
- inhibition at 25 µM [2]: 3%
- inhibition % Amyloglucosidase A. niger ([3]; at 100 μM): ^cNI ^d(0%)
- inhibition % β-D-Glucuronidase E. coli ([4]; at 100 μM): ^cNI ^d(0.5%)
- inhibition at 25 µM [7]: 4%
- inhibition % α-L-Fucosidase Bovine Kidney ([8]; at 100 μM): ^cNI ^d(0%)

Compound: N[C@@H](Cc1ccc(B(O)O)cc1)C(=O)O [^10B-BPA, reference compound]
- Percentage inhibition β-D-Glucosidase Almond (β-D-glucosidase (almond)): 3%
- Percentage inhibition β-D-Glucuronidase Bovine Liver [1]: −1%
- DOSE SCREEN percentage (%) cell growth inhibition MIA-Pa-Ca2 Pancreatic [2]: * 11 ± 3%
- inhibition % Amyloglucosidase A. niger ([3]; at 100 μM): ^cNI ^d(0%)
- inhibition % β-D-Glucuronidase E. coli ([4]; at 100 μM): ^cNI ^d(2.4%)
- inhibition % α-D-Glucosidase Yeast (α-D-glucosidase (yeast) [5]; at 100 μM): ^cNI ^d(0%)
- Percentage inhibition α-D-Glucosidase Yeast (α-D-glucosidase (yeast) [6]): 3.4%
- DOSE SCREEN percentage (%) cell growth inhibition MCF10A Breast (normal) [7]: * <0%
- inhibition % α-L-Fucosidase Bovine Kidney ([8]; at 100 μM): ^cNI ^d(0%)

Compound: CC1(C)O[C@H]2O[C@H]3[C@@H]([C@H]2O1)N(Cc1ccccc1B(O)O)C[C@H]3O [ortho 5]
- Percentage inhibition β-D-Glucosidase Almond (β-D-glucosidase (almond)): 8.7%
- Percentage inhibition β-D-Glucuronidase Bovine Liver [1]: 1.4%
- inhibition at 25 µM [2]: 12 ± 3%
- GI50 [2]: > 50 µM
- inhibition % Amyloglucosidase A. niger ([3]; at 100 μM): ^cNI ^d(4.9%)
- inhibition % β-D-Glucuronidase E. coli ([4]; at 100 μM): ^cNI ^d(1.2%)
- inhibition at 100 µM (α-D-glucosidase (yeast) [5]; [10]): 0%
- Percentage inhibition α-D-Glucosidase Yeast (α-D-glucosidase (yeast) [6]): 11%
- inhibition at 1000 µg/mL (stock) (α-D-glucosidase (yeast) [6]): 8.7%
- inhibition at 25 µM [7]: 7 ± 6%
- GI50 [7]: > 50 µM
- inhibition % β-D-Galactosidase E. coli [9]: ^cNI ^d(0%)
